Assay results as given in patent US20100285959A1, “HERBICIDAL MIXTURES” (priority 2006, published 2010).
One block for each compound: values may come before it.

Experiments:
[1] = system: rice (ORYSA); test: Test 32 greenhouse, simulated flooded rice culture; assay type: in vivo, Oryza sativa; settings: postemergence to flood, 21 DAA
Protocol: (§1) A greenhouse trial was conducted to evaluate the effects of Compound 1 and isoxadifen-ethyl at different ratios in simulated flooded rice culture. Plastic pots (11-cm diameter) were partially filled with non-sterilized Tama silt loam soil containing a 15:57:28 ratio of sand, silt and clay and 2.9% organic matter. Seeds of Heteranthera limosa (ducksalad; HETLI), Cyperus difformis (smallflower umbrella sedge; CYPDI), one stand of Echinochloa crus-galli (barnyardgrass; ECHCG), and one stand of four rice seedlings (Oryza sativa cv. ‘M202’; ORYSA) were planted into a single 11-cm diameter pot for each rate and mixture of rates. To obtain this planting, C. difformis and H. limosa seeds were planted separately on the surface soil layer at particular locations within each pot. Water levels were brought to a puddled condition above the soil surface directly after planting. E. crus-galli and rice seeds were planted in cavity trays in the silt loam soil and transplanted at the 1.5 and 2.0 leaf stage, respectively. E. crus-galli and rice plants were transplanted to about 2-cm depth by transferring plugs from the cavity trays. Plantings were sequential so that these plant species all reached the 2.0- to 2.5-leaf stage in the 11-cm diameter pot at time of treatment. Plantings were established and maintained in a greenhouse with day and night temperatures of about 29.5 and 26.7° C. respectively; supplemental balanced lighting was provided to maintain a 16-hour photoperiod. Pots were fertilized periodically with a 200 ppm solution of commercial Scotts Peters® Professional® General Purpose 20-20-20 Water Soluble Fertilizer, amended to 10 ppm with a commercial iron-chelate micronutrient fertilizer. The solution was supplied at time of watering via a liquid fertilizer injector.
(§2) At treatment time, test pots were flooded to 3 cm above the soil surface and maintained at that water depth for the duration of the test. Chemical treatments were formulated in acetone and applied directly to the paddy water (i.e., postemergence to flood). Make-up volumes of acetone were added to ensure that all pots were treated with a consistent volume. Test pots were maintained in the greenhouse. A randomized complete block design was employed. Five replicates of each treatment, alone and in mixture, were used. Each species was visually evaluated for treatment effects by comparing those treated to untreated controls and rated for plant response after 21 days.

[2] = system: barnyardgrass (ECHCG); test: Test 32 greenhouse, simulated flooded rice culture; assay type: in vivo, Echinochloa crus-galli; parameters: scale not given here; settings: postemergence to flood, 21 DAA
Protocol: as §1, §2

[3] = system: galium (GALAP); test: Test 24 growth chamber, postemergence; assay type: in vivo, Galium aparine; settings: 17 DAA
Protocol: (§3) Plants were treated postemergence at the 2-4 leaf growth stage, and each treatment was replicated three times. […] Plants were watered as needed. […] Results for barley and wheat are the means across varieties of the three replicates, and results for the weeds are the means of the three replicates.

[4] = system: kochia (KCHSC); test: Test 4 field trial, postemergence; assay type: in vivo, Kochia scoparia
Protocol: A field trial was conducted to evaluate the effects of mixtures of Compound 2 with commercial herbicides on spring wheat (TRZAS, Triticum aestivum L.) and several weed species. Wheat seeds (cv. ‘AC Intrepid’) were planted in late spring season, 3.8 cm deep in a loam soil having 2.7% organic matter and a pH of 7. Plots were 6 m long by 2.5 m wide. The field was managed using no-till practices. The plots were arranged in a randomized complete block design with each treatment being replicated four times. Treatments were applied postemergence 25 days after planting using a backpack sprayer delivering a spray volume of 55 L/ha using a pressure of 276 kPa. […] Compound 2 and clodinafop treatments, alone and in combination, also included a surfactant. Weed species present in the experimental plots in sufficient quantity to be evaluated included wild oat (AVEFA, Avena fatua L.), common lambsquarters (CHEAL, Chenopodium album L.), kochia (KCHSC, Kochia scoparia (L.) Schrad.), wild buckwheat (POLCO, Polygonum convolvulus L.), Russian thistle (SASKR, Salsola kali L. ssp. ruthenica (Iljin) Soo), and field pennycress (THLAR, Thlaspi arvense L.). […] Common lambsquarters was evaluated only at 14 days after application. […] Results are the means of the four replicates.

[5] = system: mixed hardwoods (MXDSP); test: Test 13 field trial, postemergence, brush weeds; assay type: in vivo, Nyssa sylvatica, Acer rubrum, Liquidambar styraciflua; settings: 56 DAA; g a.i./ha: Cpd 2 250; Fosamine-ammonium 6700
Description: Plots were established in non-crop land and were 6.1 m long by 3.0 m wide. […] Treatments were applied postemergence to the brush weeds using a backpack sprayer delivering a spray volume of 468 L/ha using a pressure of 241 kPa. […] All treatments also included a surfactant. […] Results are the means of the three replicates.

[6] = system: common lambsquarters (CHEAL); test: Test 24 growth chamber, postemergence; assay type: in vivo, Chenopodium album; settings: 17 DAA
Protocol: as §3

[7] = system: corn (ZEAMD); test: Test 26 field trial, postemergence; assay type: in vivo, Zea mays ssp. indentata; parameters: scale not given here
Description: Corn seeds (hybrid ‘Pioneer 31G96’) were planted in mid spring season, 3.8 cm deep in a silt loam soil having 2% organic matter and a pH of 6.6. Plots were 6.1 m long by 3.0 m wide with rows spaced 76 cm apart. Seeds were spaced 15 cm apart within the rows. The field was managed using conventional tillage practices. […] All treatments also included a surfactant. […] Some of the weed species could not be evaluated at every timing. […] Results are the means of the three replicates.

[8] = system: Pennsylvania smartweed (POLPY); test: Test 25 field trial, postemergence, growth as percent of control; assay type: in vivo, Polygonum pensylvanicum; settings: 14 DAA
Description: Corn seeds (hybrid ‘Pioneer 31G96 RR’) were planted in mid spring season, 3.8 cm deep in a clay loam soil having 2% organic matter and a pH of 6.6. Plots were 6.1 m long by 3.0 m wide with rows spaced 76 cm apart. Seeds were spaced 15 cm apart within the rows. The field was managed using conventional tillage practices. […] Giant ragweed and Pennsylvania smartweed could only be evaluated 14 days after application. […] Results are the means of the three replicates. This growth inhibition data was converted to results in the form of “plant growth as a percent of control plant growth” using the calculation “100 minus growth inhibition”.
When this form of Colby's Equation is used, if the observed effects on weeds are less than the expected values, the mixture is synergistic.

ORYSA Obs ([1]; Cpd 1 31.25 g a.i./ha): 9%
ORYSA Obs ([1]; Cpd 1 62.5 g a.i./ha): 15%
ORYSA Obs ([1]; Cpd 1 125 g a.i./ha): 27%
SMILES: Nc1nc(C2CC2)nc(C(=O)O)c1Cl [Compound 1, 6-amino-5-chloro-2-cyclopropyl-4-pyrimidinecarboxylic acid]
ECHCG Obs ([2]; Cpd 1 31.25 g a.i./ha): 10
ECHCG Obs ([2]; Cpd 1 62.5 g a.i./ha): 19
ECHCG Obs ([2]; Cpd 1 125 g a.i./ha): 37

SMILES: COC(=O)c1nc(C2CC2)nc(N)c1Cl [Compound 2, methyl 6-amino-5-chloro-2-cyclopropyl-4-pyrimidinecarboxylate]
GALAP Obs (scale 0 to 100) ([3]; Cpd 2 4 g a.i./ha): 73
GALAP Obs (scale 0 to 100) ([3]; Cpd 2 8 g a.i./ha): 75
GALAP Obs (scale 0 to 100) ([3]; Cpd 2 16 g a.i./ha): 87
KCHSC Obs ([4]; 14 DAA, Cpd 2 30 g a.i./ha alone or with clodinafop 56 or fenoxaprop 90): 95
KCHSC Obs ([4]; 35 DAA, Cpd 2 30 g a.i./ha alone or with clodinafop 56 or fenoxaprop 90): 99
KCHSC Obs ([4]; 35 DAA, Cpd 2 60 g a.i./ha alone): 96
MXDSP Obs [5]: 45
CHEAL Obs (scale 0 to 100) ([6]; Cpd 2 4 g a.i./ha): 45
CHEAL Obs (scale 0 to 100) ([6]; Cpd 2 8 g a.i./ha): 60
CHEAL Obs (scale 0 to 100) ([6]; Cpd 2 16 g a.i./ha): 73
ZEAMD Obs ([7]; 14 DAA, 30 g a.i./ha): 0
ZEAMD Obs ([7]; 14 DAA, 45 g a.i./ha): 2
ZEAMD Obs ([7]; 14 DAA, 60 g a.i./ha): 7
ZEAMD Obs ([7]; 28 DAA, 30 g a.i./ha): 2
ZEAMD Obs ([7]; 28 DAA, 45 g a.i./ha): 3
ZEAMD Obs ([7]; 28 DAA, 60 g a.i./ha): 5
ZEAMD Obs ([7]; 56 DAA, 30 g a.i./ha): 0
ZEAMD Obs ([7]; 56 DAA, 45 g a.i./ha): 0
ZEAMD Obs ([7]; 56 DAA, 60 g a.i./ha): 7
POLPY Obs (percent of control) ([8]; Cpd 2 15 g a.i./ha): 95%
POLPY Obs (percent of control) ([8]; Cpd 2 30 g a.i./ha): 55%
POLPY Obs (percent of control) ([8]; Cpd 2 45 g a.i./ha): 65%
